Results as given in patent publication US9688689B2, “Compounds and compositions for inducing chondrogenesis” (Novartis AG, priority 2014, dated 2017).

Tested on: Primary articular chondrocytes from normal bovine knees
Assay: NO Release Assay in Bovine Chondrocytes (inhibition of cytokine induced NO release, Greiss reagent)
Type: cell-based
Conditions: Bos taurus, Chondrocyte; 20 ng/ml TNFα and 10 ng/ml human oncostatin M, 48 hours; read-out: NO Inh. IC50
Procedure: The compounds of the present invention were evaluated in two functional assays to assess their chondrogenesis activities (Type II Collagen Expression) and chondrocyte protective activities (NO release assay).
The assay was described in Johnson, K., et al., (2012) Science 336, 717-721. Chondrocytes release NO during OA pathogenesis. This assay measures the inhibition of nitric oxide release by the treated compound (an indicator of chondro-protection) Primary articular chondrocytes from normal bovine knees (Animal Technologies, Tyler, Tex.) were isolated after dissection and collagenase digestion (Worthington Biochemical) of the tibial plateau and femoral condyle articular cartilage. The cells were initially plated at 80-90% confluency after isolation. Primary chondrocytes were cultured in high-glucose Dulbecco's modified Eagle's medium (DMEM) supplemented with 10% fetal bovine serum (FBS), 1% L-glutamine, 100 units/ml of penicillin, and 50 μg/ml of streptomycin (Life Technologies, Carlsbad, Calif.) and maintained at 37° C. in the presence of 5% CO2 for 7 days prior to initiation of each experiment. During the 7-day culture period, the cells adhered and established a chondrocyte-like appearance that was maintained throughout the experimental period. Functional studies on chondrocytes were performed in high-glucose DMEM with no FBS unless indicated otherwise.
After one week of culture, 8500 cells were plated per well in Greiner 384 well white clear bottom plates in growth media. Following 24 hours of culture, the media was removed and replaced with serum free DMEM containing 20 ng/ml TNFα and 10 ng/ml human oncostatin M (inflammatory mediators). […] 20 μl of the supernatant was mixed with 20 μl of the Greiss reagent (Promega # G2930) and quantitated at 540 nm. The Greiss reagent part A (1% Sulfanilamide in 5% phosphoric acid) was mixed at a 1:1 ration with Greiss reagent part B (0.1% N-1-napthylethylenediamine dihydrochloride in water) immediately prior to added to the culture supernatant.

| Structure (SMILES) | IC50 |
| --- | --- |
| O=C(Nc1ccc(Cl)c(Cl)c1)[C@H]1[C@H](c2ccncc2)[C@@H]2CC[C@H]1O2 [Compound 162] | > 33 µM |
| Cn1nc(C(F)(F)F)cc1C1=C(C(=O)Nc2ccc(Cl)c(Cl)c2)[C@H]2CC[C@@H]1O2 [Compound 141] | 17 µM |
| COC(=O)c1cc(Cl)ccc1NC(=O)C1=C(c2ccncc2)[C@@H]2CCC1O2 [Compound 54] | > 33 µM |
| Nc1cc([C@@H]2[C@@H](C(=O)Nc3ccc(Cl)c(Cl)c3)[C@H]3CC[C@@H]2O3)ccn1 [Compound 5] | 16 µM |
| O=C(Nc1ccc(-c2ccccc2Cl)c(F)c1)[C@H]1[C@H](c2ccncc2)[C@@H]2CC[C@H]1O2 [Compound 26] | > 3.4 µM |
| O=C(Nc1ccc(Cl)c(Cl)c1)[C@@H]1[C@H](c2ccncc2)[C@@H]2CC[C@H]1O2 [Compound 135] | > 33 µM |
| Nc1cc(C2=C(C(=O)Nc3ccc(-c4ccccc4F)c(F)c3)C3CC[C@@H]2O3)ccn1 [Compound 49] | > 33 µM |
| O=C(Nc1ccc(-c2ccccc2)c(Cl)c1)C1=C(c2ccn[nH]2)[C@@H]2CC[C@H]1O2 [Compound 47] | 18 µM |
| O=C(Nc1cnc(-c2ccccc2)nc1)C1=C(c2ccncc2)C2CCC1O2 (centres unmarked) [Compound 38] | > 33 µM |
| O=C(Nc1ccc(-c2ccccc2)c(Cl)c1)[C@H]1[C@@H](c2ccncc2)[C@@H]2CC[C@H]1O2 [Compound 104] | > 33 µM |
| O=C(Nc1ccc(-c2ccccc2F)c(F)c1)C1=C(c2ccnc(F)c2Cl)[C@@H]2CCC1O2 [Compound 97] | 22.6 µM |
| O=C(Nc1ccc(Cl)c(Cl)c1)[C@@H]1[C@@H](c2cccc(C(F)(F)F)n2)[C@@H]2CC[C@H]1O2 [Compound 92] | > 33 µM |
| O=C(Nc1cccc(Cl)c1F)[C@H]1[C@H](c2ccncc2)[C@@H]2CC[C@H]1O2 [Compound 41] | > 33 µM |
| O=C(Nc1ccc(-c2ccccc2)c(Cl)c1)C1=C(c2ccnn2C2CCOCC2)[C@@H]2CCC1O2 [Compound 50] | 14 µM |
| O=C(Nc1ccc(-c2ccccc2F)c(F)c1)C1=C(c2ccncc2F)[C@@H]2CCC1O2 [Compound 109] | > 33 µM |
| O=C(Nc1ccc(-c2ccccc2)cc1)[C@@H]1[C@H](c2ccncc2)[C@@H]2CC[C@H]1O2 [Compound 74] | > 33 µM |
| Cn1nc(C(F)(F)F)cc1[C@@H]1[C@@H](C(=O)Nc2ccc(Cl)c(Cl)c2)[C@H]2CC[C@@H]1O2 [Compound 89] | > 33 µM |
| Cc1ccnc([C@H]2[C@@H](C(=O)Nc3ccc(-c4ccccc4F)c(F)c3)[C@H]3CC[C@@H]2O3)c1 [Compound 166] | > 33 µM |
| O=C(Nc1ccc(-c2ccccc2F)c(F)c1)C1=C(c2cnccn2)[C@@H]2CC[C@H]1O2 [Compound 164] | > 33 µM |
| O=C(Nc1ccc(-c2ccccc2F)c(F)c1)[C@@H]1[C@@H](c2ccccn2)[C@@H]2CC[C@H]1O2 [Compound 80] | > 17 µM |
| O=C(Nc1ccc(-c2ccccc2F)c(Cl)c1)[C@@H]1C(c2cccc(C(F)(F)F)n2)[C@@H]2CC[C@H]1O2 (some centres unmarked) [Compound 27] | > 33 µM |
| O=C(Nc1ccc(-c2ccccc2F)c(F)c1)[C@@H]1[C@H](c2cc(Cl)nc(Cl)c2)[C@@H]2CC[C@H]1O2 [Compound 87] | > 33 µM |
| O=C(Nc1ccc(-c2ccccc2)c(Cl)c1)[C@@H]1[C@@H](c2cccc(C(F)(F)F)n2)[C@@H]2CC[C@H]1O2 [Compound 83] | > 33 µM |
| O=C(Nc1ccc(-c2ccccc2)cc1)[C@H]1[C@@H](c2cccnc2)[C@H]2CC[C@@H]1O2 [Compound 121] | > 23 µM |
| O=C(Nc1ccc(Cl)c(Cl)c1)C1=C(c2cccc(C(F)(F)F)n2)[C@@H]2CC[C@H]1O2 [Compound 136] | 0.14 µM |

| Structure (SMILES) | IC50 |
| --- | --- |
| O=C(Nc1ccc(-c2ccccc2F)c(F)c1)[C@@H]1[C@H](c2ccnc(F)c2Cl)[C@@H]2CC[C@H]1O2 [Compound 95] | 0.18 µM |
| O=C(Nc1ccc(-c2ccccc2F)c(F)c1)C1=C(c2ccnc(Cl)c2)[C@@H]2CCC1O2 [Compound 44] | 28 µM |
| Cc1cc([C@@H]2[C@@H](C(=O)Nc3ccc(Cl)c(Cl)c3)[C@H]3CC[C@@H]2O3)ccn1 [Compound 69] | 21 µM |
| CN(C)c1ncc([C@H]2[C@@H](C(=O)Nc3ccc(-c4ccccc4F)c(F)c3)[C@H]3CC[C@@H]2O3)cn1 [Compound 78] | 0.24 µM |
| Nc1cc([C@H]2[C@H](C(=O)Nc3ccc(Cl)c(Cl)c3)[C@@H]3CC[C@H]2O3)ccn1 [Compound 10] | 22 µM |
| O=C(Nc1ccc(Cl)c(Cl)c1)[C@@H]1[C@H](c2cccc(C(F)(F)F)n2)[C@@H]2CC[C@H]1O2 [Compound 155, (1R,2R,3R,4S)—N-(3,4-dichlorophenyl)-3-(6-(trifluoromethyl)pyridin-2-yl)-7-oxabicyclo[2.2.1]heptane-2-carboxamide] | > 33 µM |
| Cn1ccc([C@@H]2[C@H](C(=O)Nc3ccc(-c4ccccc4)cc3)[C@@H]3CC[C@H]2O3)n1 [Compound 122] | > 33 µM |
| N#Cc1cc(C2=C(C(=O)Nc3ccc(-c4ccccc4F)c(F)c3)C3CC[C@@H]2O3)ccn1 [Compound 56] | > 33 µM |
| Cc1cc(C2=C(C(=O)Nc3ccc(-c4ccccc4F)c(F)c3)C3CC[C@@H]2O3)ccn1 [Compound 32] | > 27 µM |
| O=C(Nc1ccc(-c2ccccc2Cl)c(F)c1)[C@@H]1[C@@H](c2ccncc2)[C@@H]2CC[C@H]1O2 [Compound 76] | > 33 µM |
| Cc1cc(NC(=O)C2=C(c3ccncc3)[C@@H]3CCC2O3)nn1-c1ccccc1 [Compound 61] | > 33 µM |
| O=C(Nc1ccc(-c2ccccc2)c(Cl)c1)[C@@H]1[C@@H](c2ccncc2)[C@@H]2CC[C@H]1O2 [Compound 98] | > 33 µM |
| O=C(Nc1ccc(-c2ccccc2F)c(F)c1)C1=C(c2ccnc(N3CC[C@H](O)C3)c2)[C@@H]2CC[C@H]1O2 [Compound 167] | > 33 µM |
| C[C@]12CC[C@](C)(O1)[C@@H](c1ccncc1)[C@H]2C(=O)Nc1ccc(-c2ccccc2F)c(F)c1 [Compound 93] | > 33 µM |
| O=C(Nc1cccc(C(F)(F)F)c1F)C1=C(c2cccc(C(F)(F)F)n2)C2CCC1O2 (centres unmarked) [Compound 157] | 25 µM |
| Cn1nc(C(F)(F)F)cc1C1=C(C(=O)Nc2ccc(-c3ccccc3F)c(F)c2)C2CC[C@@H]1O2 [Compound 137] | 8.2 µM |
| Cn1cc2cc([C@H]3[C@@H](C(=O)Nc4ccc(-c5ccccc5F)c(F)c4)[C@H]4CC[C@@H]3O4)ccc2n1 [Compound 65] | > 33 µM |
| O=C(Nc1ccc(Cl)c(F)c1)[C@@H]1[C@H](c2ccncc2)[C@@H]2CC[C@H]1O2 [Compound 18] | > 33 µM |
| Nc1cc([C@@H]2[C@@H](C(=O)Nc3ccc(Cl)c(Cl)c3)[C@H]3CC[C@@H]2O3)ccn1 (single isomer, unassigned) [Compound 107] | > 33 µM |
| CCOC(=O)c1ccc(NC(=O)C2=C(c3ccncc3)C3CCC2O3)cc1F (centres unmarked) [Compound 67] | > 33 µM |
| O=C(Nc1ccc(-c2ccccc2F)c(F)c1)[C@@H]1[C@@H](c2cccc(C(F)(F)F)n2)[C@@H]2CC[C@H]1O2 [Compound 86] | > 33 µM |
| O=C(Nc1ccc(-c2ccccc2Cl)c(F)c1)[C@H]1[C@@H](c2cccc(C(F)(F)F)n2)[C@H]2CC[C@@H]1O2 [Compound 123] | > 11 µM |
| O=C(Nc1ccc(Cl)c(Cl)c1)[C@@H]1[C@H](c2ccncc2)[C@H]2CC[C@@H]1O2 [Compound 8] | > 33 µM |
| CCOC(=O)c1ccc(NC(=O)C2=C(c3cccc(C(F)(F)F)n3)[C@@H]3CCC2O3)cc1 [Compound 129] | > 33 µM |
| CCOC(=O)c1ccc(NC(=O)[C@H]2[C@H](c3ccc(OC)cn3)[C@@H]3CC[C@H]2O3)cc1 [Compound 151] | > 33 µM |
